According to PubChem BioAssay (NCI):
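Tested at 5 concentrations; 48 h exposure; 96-well plates; endpoints linearly interpolated, else capped at highest concentration. TGI denotes the concentration required for complete inhibition of growth.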

Legend:
Test in all cases: NCI anticancer screen, dose series, 48 h
[1] = test system: 786-0 renal
[2] = test system: A498 renal
[3] = test system: A549 NSCLC
[4] = test system: BT-549 breast
[5] = test system: CAKI-1 renal
[6] = test system: CCRF-CEM leukemia
[7] = test system: COLO 205 colon
[8] = test system: DU-145 prostate
[9] = test system: EKVX NSCLC
[10] = test system: HCT-116 colon
[11] = test system: HOP-62 NSCLC
[12] = test system: HS 578T breast
[13] = test system: HT29 colon
[14] = test system: IGROV1 ovarian
[15] = test system: K-562 leukemia
[16] = test system: KM12 colon
[17] = test system: LOX IMVI melanoma
[18] = test system: M14 melanoma
[19] = test system: MALME-3M melanoma
[20] = test system: MCF7 breast
[21] = test system: MDA-MB-231 breast
[22] = test system: MDA-MB-435
[23] = test system: MDA-N
[24] = test system: MOLT-4 leukemia
[25] = test system: NCI-H226 lung
[26] = test system: NCI-H522 lung
[27] = test system: NCI/ADR-RES ovarian
[28] = test system: OVCAR-3 ovarian
[29] = test system: OVCAR-5 ovarian
[30] = test system: OVCAR-8 ovarian
[31] = test system: PC-3 prostate
[32] = test system: RPMI-8226 leukemia
[33] = test system: RXF 393 renal
[34] = test system: SF-268 CNS
[35] = test system: SF-295 CNS
[36] = test system: SK-MEL-2 melanoma
[37] = test system: SK-MEL-28 melanoma
[38] = test system: SK-MEL-5 melanoma
[39] = test system: SK-OV-3 ovarian
[40] = test system: SN12C renal
[41] = test system: SNB-19 CNS
[42] = test system: SNB-75 CNS
[43] = test system: SR leukemia
[44] = test system: SW-620 colon
[45] = test system: T-47D breast
[46] = test system: U251 CNS
[47] = test system: UACC-62 melanoma
[48] = test system: UO-31 renal
[49] = test system: ACHN renal
[50] = test system: HCC-2998 colon
[51] = test system: HCT-15 colon
[52] = test system: HOP-92 NSCLC
[53] = test system: NCI-H23 lung
[54] = test system: NCI-H460 lung
[55] = test system: OVCAR-4 ovarian
[56] = test system: SF-539 CNS
[57] = test system: TK-10 renal
[58] = test system: UACC-257 melanoma

SMILES: C[N+]12C=CC=C1C(N1CCCC1)c1scc(-c3ccc(F)cc3)c12 (configuration not stated)
- TGI [1]: > 100 µM
- TGI [2]: > 100 µM
- TGI [3]: > 100 µM
- TGI [4]: 88 µM
- TGI [5]: > 100 µM
- TGI [6]: 4.4 µM
- TGI [7]: 51.3 µM
- TGI [8]: > 100 µM
- TGI [9]: > 100 µM
- TGI [10]: > 100 µM
- TGI [11]: > 100 µM
- TGI [12]: > 100 µM
- TGI [13]: 45.3 µM
- TGI [14]: 36.1 µM
- TGI [15]: 26.5 µM
- TGI [16]: > 100 µM
- TGI [17]: > 100 µM
- TGI [18]: > 100 µM
- TGI [19]: > 100 µM
- TGI [20]: 88.6 µM
- TGI [21]: > 100 µM
- TGI [22]: > 100 µM
- TGI [23]: > 100 µM
- TGI [24]: 78.1 µM
- TGI [25]: > 100 µM
- TGI [26]: > 100 µM
- TGI [27]: > 100 µM
- TGI [28]: > 100 µM
- TGI [29]: > 100 µM
- TGI [30]: > 100 µM
- TGI [31]: > 100 µM
- TGI [32]: > 100 µM
- TGI [33]: > 100 µM
- TGI [34]: > 100 µM
- TGI [35]: > 100 µM
- TGI [36]: 49 µM
- TGI [37]: > 100 µM
- TGI [38]: 36.2 µM
- TGI [39]: > 100 µM
- TGI [40]: > 100 µM
- TGI [41]: > 100 µM
- TGI [42]: > 100 µM
- TGI [43]: 31.9 µM
- TGI [44]: > 100 µM
- TGI [45]: 80.5 µM
- TGI [46]: > 100 µM
- TGI [47]: > 100 µM
- TGI [48]: > 100 µM

SMILES: C=C1C(=O)C2=CC1CCC(=O)C1(C)CCC(OC(C)=O)C(C)(C)C1CC2O (configuration not stated)
- TGI [1]: > 37.7 µM
- TGI [2]: 12.6 µM
- TGI [3]: 22.4 µM
- TGI [49]: 6.82 µM
- TGI [4]: 9.33 µM
- TGI [5]: 6.2 µM
- TGI [7]: 2.47 µM
- TGI [8]: 13.9 µM
- TGI [9]: 18.9 µM
- TGI [50]: 4 µM
- TGI [10]: > 21.2 µM
- TGI [51]: 2.6 µM
- TGI [11]: 22.8 µM
- TGI [52]: 20.3 µM
- TGI [12]: 20.4 µM
- TGI [13]: 10.1 µM
- TGI [14]: 14.1 µM
- TGI [16]: 15.9 µM
- TGI [17]: > 22.5 µM
- TGI [18]: 10.4 µM
- TGI [19]: 18.1 µM
- TGI [20]: 3.84 µM
- TGI [21]: 18 µM
- TGI [22]: 26 µM
- TGI [23]: 4.41 µM
- TGI [25]: 31.9 µM
- TGI [53]: 8.62 µM
- TGI [54]: 4.64 µM
- TGI [26]: 2.19 µM
- TGI [27]: 24.9 µM
- TGI [28]: 15.8 µM
- TGI [55]: 10.8 µM
- TGI [29]: 18.9 µM
- TGI [30]: 16.5 µM
- TGI [31]: 28.8 µM
- TGI [32]: > 100 µM
- TGI [33]: 6.31 µM
- TGI [34]: 38.7 µM
- TGI [35]: 25.6 µM
- TGI [56]: 5.19 µM
- TGI [36]: 25.6 µM
- TGI [37]: > 46.4 µM
- TGI [38]: 6.09 µM
- TGI [39]: 23 µM
- TGI [40]: 12.5 µM
- TGI [41]: 15 µM
- TGI [42]: 24.8 µM
- TGI [44]: > 100 µM
- TGI [45]: 21.8 µM
- TGI [57]: 26.5 µM
- TGI [46]: > 47.1 µM
- TGI [58]: 17 µM
- TGI [47]: 5.96 µM
- TGI [48]: 5.38 µM
